The record followed here is publication PMC11167047 (Cell Death Discovery, 2024).

Common to all, as to experiment: kinome screen (33PanQinase)
Common to all, as to assay type: biochemical

The target of one test is T1, CK1γ3 (Homo sapiens, UniProt Q9Y6M4).
T1 construct: purchased Reaction Biology Europe GmbH (formerly ProQinase)
The protocol:
(§1) The Kinome Screening was performed by Reaction Biology Europe GmbH (http://reactionbiology.com; Freiburg i. Br., Germany).

The target of the next test is T2, PIM3 (Homo sapiens, UniProt Q86V86).
T2 construct: purchased Reaction Biology Europe GmbH (formerly ProQinase)
The protocol:
as §1

The next test has as its target T3, RON (Homo sapiens, UniProt Q04912).
T3 construct: purchased Reaction Biology Europe GmbH (formerly ProQinase)
The protocol:
as §1

Another test deals with T4, SNK (Homo sapiens, UniProt Q9NYY3).
T4 construct: purchased Reaction Biology Europe GmbH (formerly ProQinase)
As to the method:
as §1

For the next test, the target named is T5, STK17A (Homo sapiens, UniProt Q9UEE5).
T5 construct: purchased Reaction Biology Europe GmbH (formerly ProQinase)
T5 sequence (Q9UEE5 1-414): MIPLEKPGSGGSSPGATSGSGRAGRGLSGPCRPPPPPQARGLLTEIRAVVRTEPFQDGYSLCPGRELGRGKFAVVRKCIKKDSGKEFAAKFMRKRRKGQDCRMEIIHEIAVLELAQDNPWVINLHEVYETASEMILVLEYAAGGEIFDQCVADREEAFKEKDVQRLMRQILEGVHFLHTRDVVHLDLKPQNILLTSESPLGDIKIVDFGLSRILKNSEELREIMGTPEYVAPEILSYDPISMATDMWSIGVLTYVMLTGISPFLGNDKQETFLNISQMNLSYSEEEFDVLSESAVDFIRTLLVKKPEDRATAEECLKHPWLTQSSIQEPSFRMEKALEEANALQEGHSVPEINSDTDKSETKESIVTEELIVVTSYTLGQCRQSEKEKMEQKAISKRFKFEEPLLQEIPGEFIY
The protocol: as §1

For a further test, the target named is T6, TAOK2 (Homo sapiens, UniProt Q9UL54).
T6 construct: purchased Reaction Biology Europe GmbH (formerly ProQinase)
T6 sequence (Q9UL54 1-1235): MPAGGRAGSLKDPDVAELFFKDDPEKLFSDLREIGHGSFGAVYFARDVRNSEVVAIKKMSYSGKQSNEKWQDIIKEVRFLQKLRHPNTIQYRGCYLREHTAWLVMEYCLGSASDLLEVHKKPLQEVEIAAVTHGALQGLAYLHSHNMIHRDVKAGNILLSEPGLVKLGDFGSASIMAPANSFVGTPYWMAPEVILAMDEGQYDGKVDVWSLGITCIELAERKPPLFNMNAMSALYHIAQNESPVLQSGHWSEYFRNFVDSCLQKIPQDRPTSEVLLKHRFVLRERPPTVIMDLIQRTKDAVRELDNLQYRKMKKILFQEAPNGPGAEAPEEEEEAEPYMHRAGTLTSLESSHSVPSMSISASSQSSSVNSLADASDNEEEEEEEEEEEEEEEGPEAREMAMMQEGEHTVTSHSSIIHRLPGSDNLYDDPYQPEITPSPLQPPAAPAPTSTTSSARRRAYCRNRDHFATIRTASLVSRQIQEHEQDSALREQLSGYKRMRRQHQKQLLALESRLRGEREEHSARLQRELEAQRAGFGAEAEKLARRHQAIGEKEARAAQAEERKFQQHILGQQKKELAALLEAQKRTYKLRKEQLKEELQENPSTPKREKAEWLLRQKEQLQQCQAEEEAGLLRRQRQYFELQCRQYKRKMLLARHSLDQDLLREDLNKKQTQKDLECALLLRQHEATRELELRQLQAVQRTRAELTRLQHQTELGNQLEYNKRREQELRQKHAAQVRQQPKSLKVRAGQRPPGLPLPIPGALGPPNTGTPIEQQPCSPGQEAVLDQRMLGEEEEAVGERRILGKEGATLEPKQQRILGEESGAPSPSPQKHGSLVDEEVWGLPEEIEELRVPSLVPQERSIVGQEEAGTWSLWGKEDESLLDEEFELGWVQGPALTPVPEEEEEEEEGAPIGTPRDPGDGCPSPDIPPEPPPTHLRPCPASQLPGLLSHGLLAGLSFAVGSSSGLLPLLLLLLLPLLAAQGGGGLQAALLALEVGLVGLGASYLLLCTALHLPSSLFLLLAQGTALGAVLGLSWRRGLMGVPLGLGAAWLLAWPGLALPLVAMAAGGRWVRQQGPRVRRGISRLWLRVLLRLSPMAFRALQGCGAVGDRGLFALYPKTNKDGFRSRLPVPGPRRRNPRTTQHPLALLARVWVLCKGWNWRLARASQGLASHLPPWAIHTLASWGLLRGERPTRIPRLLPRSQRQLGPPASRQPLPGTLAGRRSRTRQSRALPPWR
The protocol:
as §1

The next test addresses T7, TSF1 (Homo sapiens, UniProt O75716).
T7 construct: purchased Reaction Biology Europe GmbH (formerly ProQinase)
The protocol: as §1

The target in the next test is T8, TTK (Homo sapiens, UniProt P33981).
T8 construct: purchased Reaction Biology Europe GmbH (formerly ProQinase)
T8 sequence (P33981 1-857): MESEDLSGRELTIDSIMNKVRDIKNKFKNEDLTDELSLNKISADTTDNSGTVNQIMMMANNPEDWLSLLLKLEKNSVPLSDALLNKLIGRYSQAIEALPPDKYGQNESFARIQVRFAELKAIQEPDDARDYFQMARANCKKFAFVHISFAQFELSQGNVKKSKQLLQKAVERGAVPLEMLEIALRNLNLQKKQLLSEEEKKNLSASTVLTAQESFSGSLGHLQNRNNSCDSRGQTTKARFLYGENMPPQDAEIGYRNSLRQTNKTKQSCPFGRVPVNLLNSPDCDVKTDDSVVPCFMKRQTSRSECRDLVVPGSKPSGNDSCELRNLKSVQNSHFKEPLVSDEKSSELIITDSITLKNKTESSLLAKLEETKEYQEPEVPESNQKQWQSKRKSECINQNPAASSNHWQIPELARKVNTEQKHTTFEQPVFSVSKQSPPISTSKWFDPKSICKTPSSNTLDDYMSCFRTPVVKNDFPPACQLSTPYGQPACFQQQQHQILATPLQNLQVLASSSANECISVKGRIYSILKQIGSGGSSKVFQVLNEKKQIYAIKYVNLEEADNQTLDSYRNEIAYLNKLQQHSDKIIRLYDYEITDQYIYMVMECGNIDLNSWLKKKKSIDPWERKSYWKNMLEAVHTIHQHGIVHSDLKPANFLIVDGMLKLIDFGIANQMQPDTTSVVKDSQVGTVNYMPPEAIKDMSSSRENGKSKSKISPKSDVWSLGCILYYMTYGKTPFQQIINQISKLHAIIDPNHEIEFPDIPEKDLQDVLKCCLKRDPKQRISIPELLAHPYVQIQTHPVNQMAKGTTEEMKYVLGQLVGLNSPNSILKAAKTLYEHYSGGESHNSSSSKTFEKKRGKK
The protocol:
as §1

T7 sequence (O75716 whole entry): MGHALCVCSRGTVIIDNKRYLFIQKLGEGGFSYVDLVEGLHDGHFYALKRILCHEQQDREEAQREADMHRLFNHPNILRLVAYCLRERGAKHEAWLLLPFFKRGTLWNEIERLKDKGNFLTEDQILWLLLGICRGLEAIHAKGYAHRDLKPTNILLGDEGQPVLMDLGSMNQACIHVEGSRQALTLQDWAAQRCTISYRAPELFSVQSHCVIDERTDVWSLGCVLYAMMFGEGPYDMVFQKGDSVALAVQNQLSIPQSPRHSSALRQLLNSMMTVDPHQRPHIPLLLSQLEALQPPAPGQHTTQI
T1 sequence (Q9Y6M4 whole entry): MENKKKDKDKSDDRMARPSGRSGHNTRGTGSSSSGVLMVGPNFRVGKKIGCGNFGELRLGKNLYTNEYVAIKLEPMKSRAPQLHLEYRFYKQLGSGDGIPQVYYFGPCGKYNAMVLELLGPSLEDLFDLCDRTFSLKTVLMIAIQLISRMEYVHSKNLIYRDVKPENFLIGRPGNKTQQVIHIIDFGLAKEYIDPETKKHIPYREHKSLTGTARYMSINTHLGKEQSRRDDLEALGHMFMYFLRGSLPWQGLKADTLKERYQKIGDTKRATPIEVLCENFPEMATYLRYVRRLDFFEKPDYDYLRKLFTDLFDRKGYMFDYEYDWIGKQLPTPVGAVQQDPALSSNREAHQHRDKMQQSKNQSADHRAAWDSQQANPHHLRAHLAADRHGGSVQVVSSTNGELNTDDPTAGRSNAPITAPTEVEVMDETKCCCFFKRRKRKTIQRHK
T3 sequence (Q04912 25-1400): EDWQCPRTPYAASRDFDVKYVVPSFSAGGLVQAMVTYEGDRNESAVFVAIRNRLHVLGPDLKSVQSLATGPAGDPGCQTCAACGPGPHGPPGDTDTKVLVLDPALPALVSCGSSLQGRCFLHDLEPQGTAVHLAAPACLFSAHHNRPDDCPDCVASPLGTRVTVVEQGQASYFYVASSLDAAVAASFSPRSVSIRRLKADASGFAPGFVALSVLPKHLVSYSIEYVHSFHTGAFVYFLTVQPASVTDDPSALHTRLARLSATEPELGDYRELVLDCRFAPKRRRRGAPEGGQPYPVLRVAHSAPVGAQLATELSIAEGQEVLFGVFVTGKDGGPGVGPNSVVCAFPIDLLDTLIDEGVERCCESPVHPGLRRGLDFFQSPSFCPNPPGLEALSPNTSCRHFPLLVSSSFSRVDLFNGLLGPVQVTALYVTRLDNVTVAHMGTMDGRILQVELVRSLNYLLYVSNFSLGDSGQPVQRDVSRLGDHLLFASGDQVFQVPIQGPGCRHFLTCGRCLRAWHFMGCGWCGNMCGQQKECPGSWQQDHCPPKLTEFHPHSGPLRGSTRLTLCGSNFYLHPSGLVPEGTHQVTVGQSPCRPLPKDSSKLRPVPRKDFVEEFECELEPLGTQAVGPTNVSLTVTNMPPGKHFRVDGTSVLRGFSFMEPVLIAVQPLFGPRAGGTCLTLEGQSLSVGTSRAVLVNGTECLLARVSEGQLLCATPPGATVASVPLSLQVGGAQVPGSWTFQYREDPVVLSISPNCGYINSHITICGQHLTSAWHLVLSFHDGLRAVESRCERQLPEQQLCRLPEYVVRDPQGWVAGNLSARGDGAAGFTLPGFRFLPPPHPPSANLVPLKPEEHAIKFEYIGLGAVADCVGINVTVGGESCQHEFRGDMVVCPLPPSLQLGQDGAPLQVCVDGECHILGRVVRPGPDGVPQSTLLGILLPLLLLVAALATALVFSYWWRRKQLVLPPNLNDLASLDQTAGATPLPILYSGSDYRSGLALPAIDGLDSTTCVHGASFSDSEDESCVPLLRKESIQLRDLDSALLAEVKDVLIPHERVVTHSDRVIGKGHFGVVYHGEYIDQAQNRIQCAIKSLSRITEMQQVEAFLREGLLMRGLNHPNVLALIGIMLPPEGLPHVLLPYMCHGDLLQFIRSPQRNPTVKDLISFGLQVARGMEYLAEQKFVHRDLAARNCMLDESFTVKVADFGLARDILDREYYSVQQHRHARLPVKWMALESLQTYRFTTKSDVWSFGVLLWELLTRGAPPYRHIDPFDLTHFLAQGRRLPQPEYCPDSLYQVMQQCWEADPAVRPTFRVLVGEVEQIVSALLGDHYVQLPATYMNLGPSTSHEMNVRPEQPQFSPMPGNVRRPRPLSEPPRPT
T4 sequence (Q9NYY3 whole entry): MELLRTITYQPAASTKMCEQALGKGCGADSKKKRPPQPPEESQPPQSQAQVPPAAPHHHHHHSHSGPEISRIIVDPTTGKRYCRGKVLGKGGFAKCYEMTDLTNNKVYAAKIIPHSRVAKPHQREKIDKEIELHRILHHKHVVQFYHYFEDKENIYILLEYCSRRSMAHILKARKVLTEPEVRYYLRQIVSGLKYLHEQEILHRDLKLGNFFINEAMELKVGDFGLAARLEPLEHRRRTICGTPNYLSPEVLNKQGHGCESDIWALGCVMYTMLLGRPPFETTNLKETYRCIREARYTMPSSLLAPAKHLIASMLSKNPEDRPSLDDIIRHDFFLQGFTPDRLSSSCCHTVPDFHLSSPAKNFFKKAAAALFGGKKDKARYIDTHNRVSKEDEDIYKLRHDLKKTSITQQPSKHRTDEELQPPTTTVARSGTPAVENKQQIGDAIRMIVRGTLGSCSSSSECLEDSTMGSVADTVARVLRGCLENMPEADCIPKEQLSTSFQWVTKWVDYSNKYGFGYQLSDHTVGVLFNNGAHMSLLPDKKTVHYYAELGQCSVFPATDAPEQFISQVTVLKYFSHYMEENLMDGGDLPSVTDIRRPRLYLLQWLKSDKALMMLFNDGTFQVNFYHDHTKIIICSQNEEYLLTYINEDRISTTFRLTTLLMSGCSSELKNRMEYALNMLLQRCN

For `c1ccc(CNc2cc(-c3c[nH]c4ncccc34)ccn2)cc1` [meriolin 36], the residual kinase activity is 49 % of control at CK1γ3 (0.3 µM); 9 % of control on CK1γ3 (3 µM); 85 % of control at PIM3 (0.3 µM); 46 % of control on PIM3 (3 µM); 98 % of control at RON (0.3 µM); 76 % of control on RON (3 µM). In addition, the residual kinase activity at SNK (0.3 µM) is 94 % of control; at SNK (3 µM), 43 % of control; on STK17A (0.3 µM) it was 23 % of control; at STK17A (3 µM), 4 % of control; at TAOK2 (0.3 µM), 60 % of control; on TAOK2 (3 µM), 19 % of control. Also, the residual kinase activity is listed as 57 % of control at TSF1 (0.3 µM), 8 % of control at TSF1 (3 µM), 55 % of control at TTK (0.3 µM) and 17 % of control on TTK (3 µM).
For `COc1ccnc2[nH]cc(-c3cc(N)nc(N)c3)c12` [meriolin 16], the residual kinase activity is recorded as 77 % of control on CK1γ3 (0.03 µM); 22 % of control on CK1γ3 (0.3 µM); 118 % of control on PIM3 (0.03 µM); 68 % of control on PIM3 (0.3 µM); 92 % of control on RON (0.03 µM); 90 % of control on RON (0.3 µM). The residual kinase activity on SNK (0.03 µM) was 96 % of control; at SNK (0.3 µM) it was 98 % of control; at STK17A (0.03 µM) it was 83 % of control; on STK17A (0.3 µM) it was 23 % of control; at TAOK2 (0.03 µM), 107 % of control; on TAOK2 (0.3 µM), 89 % of control. Also, the residual kinase activity on TSF1 (0.03 µM) was 109 % of control; on TSF1 (0.3 µM), 104 % of control; at TTK (0.03 µM), 49 % of control; at TTK (0.3 µM), 8 % of control.
